Laboratory results reported in PubChem BioAssay AID1963837 (Molecular Pharmacology Branch, DTP, NCI, 2024).
Values joined by “and” are separate entries in the source; they are usually repeats but may differ in a detail not shown here. Equal entries are not always repeated.

Test system: 843126-344-R-J1-PDC complex spheroid viability
Assay: Anticancer human tumor 843126-344-R-J1-PDC patient-derived melanoma cell line growth inhibition [POLQ]
Conditions: for viability, T/C: stronger effect = lower value
Description: Multicellular complex tumor spheroid response to Polymerase (POL) inhibitors (novobiocin, ART-558, RP6685) in combination with a variety of drugs and investigational agents in selected tumor cell lines
The POL inhibitors (novobiocin, ART-558, and RP6685) were evaluated both individually and in combination with standard of care and investigational anticancer small molecules within a complex spheroid model of solid tumors. . Complex spheroids include a stromal component modeled by human endothelial cells (HUVEC) and fibroblasts modeled by human mesenchymal stem cells (MSCs). The concentration ranges selected for each drug and investigational agent were based upon clinically achievable concentrations if the clinical Cmax of the agent was known.
Compounds. The drugs and investigational agents: novobiocin (NSC847541), ART-558 (NSC835418), RP-6685 (NSC848927), peposertib (NSC802822), ceralasertib (NSC780249), elimusertib (NSC800525), camonsertib (NSC841442), AZD-1390 (NSC803789), olaparib (NSC753686), talazoparib (NSC767125), rucaparib (NSC756644), sotorasib (NSC818433), MRTX-1133 (NSC836407), SN-38 (NSC673596), topotecan (NSC609699), epotoside (NSC141540), doxorubicin (NSC123127), gemcitabine (NSC613327), 5-fluorouracil (NSC19893), paclitaxel (NSC125973), vemurafenib (NSC761431), MSA-2 (NSC828583), SN-011 (NSC837082), adavosertib (NSC754352), prexasertib (NSC758257), carboplatin (NSC241240) and oxaliplatin (NSC266046), were obtained from the National Cancer Institute (NCI) Developmental Therapeutics Program Chemical Repository (21). The FDA-approved anticancer drug set is available from the Developmental Therapeutics Program at https://dtp.cancer.gov/organization/dscb/obtaining/. […] The stock solutions were prepared in dimethyl sulfoxide (DMSO, Sigma-Aldrich, St. Louis, MO, cat. D2650), except for the platinum compounds which were prepared in saline (Quality Biological, Gaithersburg, MD, cat. 114-055-101), at 800-fold the tested concentration and stored at -70 degrees C prior to their use. All drugs and investigational agents were tested over a range starting from a high concentration at or near the clinical Cmax and decreasing in half-log increments. If the clinical Cmax for an agent had not been determined, the highest concentration tested was 10 microM, except for SN-38, which was tested at a high concentration of 1 microM.
Cell Culture. All cells were maintained in an incubator at 37 degrees C and 5% CO2 with 95% humidity. The PDC lines were cultured according to standard operating procedures established by the NCI PDMR (https://pdmr.cancer.gov). Table 3 of the manuscript, lists the cell lines along with the number of the three cell types plated to form the mct-spheroids and media for tumor cell growth. After thawing, all PDC lines, except 997537-175-T-J1-PDC and 415267-285-R-J2-PDC, were cultured in Matrigel-coated flasks prepared with a working solution of 1X Ham's F-12 nutrient mix, without supplementation (Thermo Fisher Scientific, cat. 11765054), 100 U/mL penicillin-streptomycin (Thermo Fisher Scientific, cat. 15140122), and 2.5% Matrigel (Corning Inc., Corning, NY, cat. 354248) for the first three passages. The two PDC lines 997537-175-T-J1-PDC and 415267-285-R-J2-PDC were cultured on uncoated flasks. The 857933-349-R-J2-PDC line was cultured in 6C/Colon 1B media containing advanced DMEM/F-12 (Thermo Fisher Scientific, cat. 12634028), 10 mM HEPES (Thermo Fisher Scientific, cat. 15630080), 1X GlutaMAX supplement (Thermo Fisher Scientific, cat. 35050061), 0.1 mg/mL primocin (InvivoGen, San Diego, CA, cat. ant-pm-2), 10% defined fetal bovine serum, heat inactivated (HyClone Laboratories Inc., Logan, UT, cat. SH30070.03HI), 50% L-WRN conditioned media (ATCC, cat. CRL-3276), 1.25 mM N-Acetyl-L-cysteine (Sigma-Aldrich, cat. A9165), 10 mM nicotinamide (Sigma-Aldrich, cat. N0636), 1X B-27 supplement (Thermo Fisher Scientific, cat. 17504044), 1X N-2 supplement (Thermo Fisher Scientific, cat. […]

[1] = curve of first compound, second compound 0.0316 µM
[2] = curve of first compound, second compound 0.1 µM
[3] = curve of first compound, second compound 0.316 µM
[4] = curve of first compound, second compound 1 µM
[5] = curve of first compound, second compound 3.16 µM
[6] = curve of first compound, second compound 10 µM
[7] = second compound 0.0316 µM, first compound 0.0316 µM
[8] = second compound 0.0316 µM, first compound 0.1 µM
[9] = second compound 0.0316 µM, first compound 0.316 µM
[10] = second compound 0.0316 µM, first compound 1 µM
[11] = second compound 0.1 µM, first compound 0.0316 µM
[12] = second compound 0.1 µM, first compound 0.1 µM
[13] = second compound 0.1 µM, first compound 0.316 µM
[14] = second compound 0.1 µM, first compound 1 µM
[15] = second compound 0.316 µM, first compound 0.0316 µM
[16] = second compound 0.316 µM, first compound 0.1 µM
[17] = second compound 0.316 µM, first compound 0.316 µM
[18] = second compound 0.316 µM, first compound 1 µM
[19] = second compound 1 µM, first compound 0.0316 µM
[20] = second compound 1 µM, first compound 0.1 µM
[21] = second compound 1 µM, first compound 0.316 µM
[22] = second compound 1 µM, first compound 1 µM
[23] = second compound 3.16 µM, first compound 0.0316 µM
[24] = second compound 3.16 µM, first compound 0.1 µM
[25] = second compound 3.16 µM, first compound 0.316 µM
[26] = second compound 3.16 µM, first compound 1 µM
[27] = second compound 10 µM, first compound 0.0316 µM
[28] = second compound 10 µM, first compound 0.1 µM
[29] = second compound 10 µM, first compound 0.316 µM
[30] = second compound 10 µM, first compound 1 µM
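Throughout, for viability, T/C: spheroids exposed to drugs for seven days before readout.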

In the case of `CC[C@@]1(O)C(=O)OCc2c1cc1n(c2=O)Cc2cc3c(CN(C)C)c(O)ccc3nc2-1`, the viability, T/C (compound 0.000316 µM) is reported as 84.4% and 108% and 96.4%, the viability, T/C (compound 0.001 µM) is reported as 99.5% and 88.4% and 89.3% and the viability, T/C (compound 0.00316 µM) is reported as 92.7% and 105% and 96.4%. For the same molecule, the viability, T/C (compound 0.01 µM) was 88.6% and 93.8% and 85.1%, the viability, T/C (compound 0.0316 µM) was 73% and 63.1% and 67.9% and the viability, T/C (compound 0.1 µM) was 51.1% and 55.8% and 48.8%. The IC50 (curve of compound) was > 100 nM and 93.3 nM.
For `COc1cccc2c1C(=O)c1c(O)c3c(c(O)c1C2=O)CC(O)(C(=O)CO)CC3OC1CC(N)C(O)C(C)O1` (stereo not drawn), the viability, T/C (compound 0.0316 µM) was 82.8% and 77.3% and 86.3%, the viability, T/C (compound 0.1 µM) was 70.2% and 71% and 79.7% and the viability, T/C (compound 0.316 µM) was 44.3% and 47.8% and 56.8%. The viability, T/C (compound 1 µM) was 12.3% and 15.1% and 18.4%, the viability, T/C (compound 3.16 µM) was 4.78% and 2.95% and 3.66% and the viability, T/C (compound 10 µM) was 3.94% and 2.18% and 3.96%. For the same molecule, the IC50 (curve of compound) was 237 nM and 282 nM and 385 nM.
With `O=C(c1cc(Cc2n[nH]c(=O)c3ccccc23)ccc1F)N1CCN(C(=O)C2CC2)CC1` + COC1C(OC(N)=O)C(O)C(Oc2ccc3c(O)c(NC(=O)c4ccc(O)c(CC=C(C)C)c4)c(=O)oc3c2C)OC1(C)C the IC50 [1] was greater than 10000 nM, the IC50 [2] was greater than 10000 nM and the IC50 [3] was greater than 10000 nM. The IC50 [4] was greater than 10000 nM, the IC50 [5] was greater than 10000 nM and the IC50 [6] was greater than 10000 nM. The viability, T/C [7] was 81.4%, the viability, T/C [8] was 94.9% and the viability, T/C [9] was 76.9%. It also gave a viability, T/C [10] of 82.5%, a viability, T/C (second compound 0.0316 µM, first compound 3.16 µM) of 80.7% and a viability, T/C (second compound 0.0316 µM, first compound 10 µM) of 63.8%. The viability, T/C [11] was 76.2%, the viability, T/C [12] was 98.7% and the viability, T/C [13] was 90.2%. The viability, T/C [14] was 71.9%, the viability, T/C (second compound 0.1 µM, first compound 3.16 µM) was 80.7% and the viability, T/C (second compound 0.1 µM, first compound 10 µM) was 61.6%. The viability, T/C [15] was 91.8%, the viability, T/C [16] was 71.1% and the viability, T/C [17] was 97.9%. The viability, T/C [18] was 81.5%, the viability, T/C (second compound 0.316 µM, first compound 3.16 µM) was 80.7% and the viability, T/C (second compound 0.316 µM, first compound 10 µM) was 73.5%. For the same molecule, the viability, T/C [19] was 83.3%, the viability, T/C [20] was 85% and the viability, T/C [21] was 92.8%. It also gave a viability, T/C [22] of 92.3%, a viability, T/C (second compound 1 µM, first compound 3.16 µM) of 100% and a viability, T/C (second compound 1 µM, first compound 10 µM) of 63.6%. The viability, T/C [23] was 71.1%, the viability, T/C [24] was 81.7% and the viability, T/C [25] was 106%. The viability, T/C [26] was 76.5%, the viability, T/C (second compound 3.16 µM, first compound 3.16 µM) was 83.5% and the viability, T/C (second compound 3.16 µM, first compound 10 µM) was 66.1%. The viability, T/C [27] was 91%, the viability, T/C [28] was 72% and the viability, T/C [29] was 96.1%. It also gave a viability, T/C [30] of 80.6%, a viability, T/C (second compound 10 µM, first compound 3.16 µM) of 80.6% and a viability, T/C (second compound 10 µM, first compound 10 µM) of 61%.
Molecule `COc1cccc(OCCCN)c1-c1cc(Nc2cnc(C#N)cn2)n[nH]1` + Cc1cccc(N(C)C(=O)C2C(O)CCN2c2nc(C)cc(C(F)(F)F)c2C#N)c1 has an IC50 [1] of 96.1 nM, an IC50 [2] of 82.4 nM and an IC50 [3] of 157 nM. It also gave an IC50 [4] of 125 nM, an IC50 [5] of 79.9 nM and an IC50 [6] of 81.2 nM. The viability, T/C (second compound 0.0316 µM, first compound 0.00316 µM) was 96.8%, the viability, T/C (second compound 0.0316 µM, first compound 0.01 µM) was 75.1% and the viability, T/C [7] was 63.5%. It also gave a viability, T/C [8] of 48.8%, a viability, T/C [9] of 40.5% and a viability, T/C [10] of 34.3%. The viability, T/C (second compound 0.1 µM, first compound 0.00316 µM) was 102%, the viability, T/C (second compound 0.1 µM, first compound 0.01 µM) was 71.6% and the viability, T/C [11] was 61.1%. It also gave a viability, T/C [12] of 48%, a viability, T/C [13] of 42.6% and a viability, T/C [14] of 38.2%. It also gave a viability, T/C (second compound 0.316 µM, first compound 0.00316 µM) of 90%, a viability, T/C (second compound 0.316 µM, first compound 0.01 µM) of 75.9% and a viability, T/C [15] of 59.8%. It also gave a viability, T/C [16] of 59%, a viability, T/C [17] of 43.3% and a viability, T/C [18] of 34.4%. The viability, T/C (second compound 1 µM, first compound 0.00316 µM) was 92.9%, the viability, T/C (second compound 1 µM, first compound 0.01 µM) was 72.1% and the viability, T/C [19] was 62.4%. It also gave a viability, T/C [20] of 54.7%, a viability, T/C [21] of 42.3% and a viability, T/C [22] of 32.7%. For the same molecule, the viability, T/C (second compound 3.16 µM, first compound 0.00316 µM) was 98.3%, the viability, T/C (second compound 3.16 µM, first compound 0.01 µM) was 77.3% and the viability, T/C [23] was 58.3%. For the same molecule, the viability, T/C [24] was 47.5%, the viability, T/C [25] was 41.7% and the viability, T/C [26] was 33.8%. It also gave a viability, T/C (second compound 10 µM, first compound 0.00316 µM) of 108%, a viability, T/C (second compound 10 µM, first compound 0.01 µM) of 67.4% and a viability, T/C [27] of 64.3%. The viability, T/C [28] was 48.9%, the viability, T/C [29] was 42.5% and the viability, T/C [30] was 40.4%.
